Article PMC11390726, “Automated design of multi-target ligands by generative deep learning” (Nature Communications, 2024)
One block for each compound: values may come before it.

How the values were obtained:
[1] = target: T1, FFAR1 (Homo sapiens, UniProt O14842); parameters: method as in earlier work; conditions: fine-tuning set; BindingDB; read-out: potency on target (EC50 for FFAR1); cited from earlier work
T1 construct: expressed in transfected cells

[2] = tested on: sEH; parameters: method as in earlier work; conditions: fine-tuning set; BindingDB; read-out: potency on target (IC50 for sEH); cited from earlier work
[3] = tested on: THRβ; parameters: method as in earlier work; conditions: fine-tuning set; BindingDB; read-out: potency on target (EC50 for THRβ); cited from earlier work
[4] = tested on: FXR; parameters: method as in earlier work; conditions: fine-tuning set; BindingDB; read-out: potency on target (EC50 for FXR); cited from earlier work
[5] = target: T2, FXR (Homo sapiens, UniProt Q96RI1); test: Gal4-hybrid reporter gene assay FXR; format: cell-based; conditions: mean, n ≥ 3
T2 construct: expressed in transfected cells; host or cells: HEK293T
T2 sequence (Q96RI1 262-486 limits assumed): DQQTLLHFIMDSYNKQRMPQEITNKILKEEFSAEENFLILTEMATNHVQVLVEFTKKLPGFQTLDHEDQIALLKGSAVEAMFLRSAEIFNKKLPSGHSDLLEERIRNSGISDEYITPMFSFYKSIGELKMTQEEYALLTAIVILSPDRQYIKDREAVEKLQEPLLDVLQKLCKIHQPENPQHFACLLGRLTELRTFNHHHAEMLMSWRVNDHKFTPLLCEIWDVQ
Method: The dual ligand candidates were characterized in functional assays for the targets of interest using cellular Gal4-hybrid reporter gene assays[43] to determine FXR, THRβ and PPARδ modulation and an enzyme activity assay[44] with the fluorogenic substrate PHOME to test sEH inhibition (Table 1).
After 24 h, the medium was changed to Opti-MEM without supplements. Transient transfection was performed using Lipofectamine LTX reagent (Invitrogen, Carlsbad, CA, USA) according to the manufacturer’s protocol with pFR-Luc (100 ng/well) as reporter plasmid, pRL-SV40 (2 ng/well) for normalization of transfection efficiency and cell growth, and one pFA-CMV-hNR-LBD clone coding for the hinge region and ligand binding domain (LBD) of the NR of interest. Five hours after transfection, the cells were incubated with Opti-MEM supplemented with penicillin (100 U/mL) and streptomycin (100 µg/mL), additionally containing 0.1% DMSO and the respective test compound or 0.1% DMSO alone as untreated control. After overnight (14–16 h) incubation, luminescence was measured using the Dual-Glo® Luciferase Assay System (Promega, Madison, WI, USA) according to the manufacturer’s protocol with a Tecan Spark® 10 M multimode microplate reader. Relative light units (RLU) for normalization of transfection efficiency and cell growth were calculated by dividing firefly luminescence by renilla luminescence and multiplication by 1000. Fold activation was obtained by dividing the mean RLU of a test compound at a respective concentration by the mean RLU of the untreated control. All samples were tested in duplicates in at least three biologically independent experiments. For dose response curve fitting and calculation of the EC50/IC50 values, the equation “[Agonist]/[Inhibitor] vs. response – Variable slope (four parameters)” was used in GraphPad Prism 7.

[6] = target: T3, sEH (Homo sapiens, UniProt P34913); test: sEH enzyme activity assay with fluorogenic substrate PHOME; format: biochemical; conditions: mean, n ≥ 3
T3 construct: His tag (inferred from HisTrap purification with imidazole elution); made in house; own inference
T3 sequence (P34913 1-555): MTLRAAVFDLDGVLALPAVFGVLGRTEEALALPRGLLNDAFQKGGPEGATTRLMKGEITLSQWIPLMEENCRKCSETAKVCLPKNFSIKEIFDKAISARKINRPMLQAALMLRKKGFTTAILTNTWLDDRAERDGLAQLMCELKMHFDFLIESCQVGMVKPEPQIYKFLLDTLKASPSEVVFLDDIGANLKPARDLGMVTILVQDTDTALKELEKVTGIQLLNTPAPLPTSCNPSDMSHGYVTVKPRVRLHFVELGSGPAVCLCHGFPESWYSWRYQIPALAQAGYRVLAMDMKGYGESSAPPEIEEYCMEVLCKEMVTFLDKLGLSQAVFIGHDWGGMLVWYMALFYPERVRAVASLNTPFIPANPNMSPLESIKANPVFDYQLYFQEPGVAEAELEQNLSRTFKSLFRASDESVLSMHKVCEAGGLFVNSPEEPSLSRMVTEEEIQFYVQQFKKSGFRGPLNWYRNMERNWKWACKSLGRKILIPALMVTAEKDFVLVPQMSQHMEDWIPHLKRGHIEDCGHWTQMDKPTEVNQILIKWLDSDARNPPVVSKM
From the text: (§1) Compound 7 was originally designed with tert-butyloxy motif which was replaced by tert-butyl for improved chemical stability. The dual ligand candidates were characterized in functional assays for the targets of interest using cellular Gal4-hybrid reporter gene assays[43] to determine FXR, THRβ and PPARδ modulation and an enzyme activity assay[44] with the fluorogenic substrate PHOME to test sEH inhibition (Table 1). In vitro characterization of the CLM designed dual FXR/sEH modulators 1–3 confirmed engagement of both targets by all three compounds with sub-micromolar to low micromolar potencies. […] All designed PPARδ/sEH modulators (7–9) were confirmed as dual ligands of the intended targets. 7 emerged as remarkably potent sEH inhibitor endowed with micromolar PPARδ agonist activity.
Soluble epoxide hydrolase (sEH) was purified as described by Hahn et al.[68] and Lukin et al.[69], respectively. Protein expression was carried out in 500 ml ZYP5052 autoinduction medium containing Kanamycin (100 mg/L) with lactose uptake-dependent induction. The fermentation procedure started at 37 °C and 200 rpm until the OD600 reached approximately 1.0. Then the temperature was reduced to 16 °C. After 24–36 h the cells (OD600 ≈ 15.0) were harvested by centrifugation at 5000 × g (4 °C, 20 min). Pellets were resuspended in a resuspension buffer containing Tris (50 mM), NaCl (0.5 M) and MgCl2 (10 mM) at pH 8 and sonicated twice for 15 s on ice. The sonicated suspension was centrifuged (18,000 × g, 30 min, 4 °C) and the supernatant was ultracentrifuged (100,000 × g, 1 h 10 min, 4 °C). The ultracentrifugation supernatant was loaded on a 5 ml HisTrap® FF (GE Healthcare, München, Germany) column at a flow rate of 2 ml/min and washed with washing buffer containing Tris (50 mM), NaCl (0.5 M), MgCl2 (10 mM), imidazole (20 mM) and DTT (3 mM) at pH 8, and eluted at 120 mM imidazole. The fractions containing hsEH after SDS-PAGE fraction analysis were pooled. The identity of hsEH was confirmed by Western Blotting and hsEH hydrolase activity assay. The inhibitory potency of the compounds was determined using a fluorescence-based enzyme activity assay in which PHOME (3-phenyl-cyano(6-methoxy-2-naphthalenyl)methylester-2-oxiraneacetic acid) is metabolized by sEH hydrolase towards a fluorescent naphthalene aldehyde. Dilution series of the compounds were incubated for 30 min with recombinant sEH (final protein concentration 3 nM). Subsequently, the fluorogenic substrate PHOME at final concentration of 50 μM was added, and the fluorescence was measured every minute for 45 min using a Tecan plate reader (ex: 360 nm, em: 465 nm; bandwidth 35 nm). Inhibition in percent was plotted against the logarithmic test compound concentration and IC50-values were calculated using the “log(Inhibitor) vs. Response – Variable slope (four parameters)” equation in GraphPad Prism 7.

[7] = target: T4, THRβ (Homo sapiens, UniProt P10828); test: Gal4-hybrid reporter gene assay THRβ; format: cell-based; conditions: for THRβ agonism: at non-toxic concentrations
T4 construct: expressed in transfected cells; host or cells: HEK293T
T4 sequence (P10828 217-461 limits assumed): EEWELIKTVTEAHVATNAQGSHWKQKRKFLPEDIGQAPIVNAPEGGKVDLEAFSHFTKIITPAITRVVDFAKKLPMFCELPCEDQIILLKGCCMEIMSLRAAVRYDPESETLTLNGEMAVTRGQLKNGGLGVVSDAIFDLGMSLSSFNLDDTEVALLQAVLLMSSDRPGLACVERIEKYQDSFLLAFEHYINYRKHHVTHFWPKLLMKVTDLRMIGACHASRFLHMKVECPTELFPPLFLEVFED
From the text: as §1
HEK293T cells (ATCC, CRL-1573) were cultured in Dulbecco’s modified eagle medium (DMEM), high glucose, supplemented with 10% FCS, sodium pyruvate (1 mM), penicillin (100 U/mL), and streptomycin (100 µg/mL) to 70–80% confluence at 37 °C and 5% CO2 and seeded in clear 96-well plates with a density of 40,000 cells/well. After 24 h, the medium was changed to Opti-MEM without supplements. Transient transfection was performed using Lipofectamine LTX reagent (Invitrogen, Carlsbad, CA, USA) according to the manufacturer’s protocol with pFR-Luc (100 ng/well) as reporter plasmid, pRL-SV40 (2 ng/well) for normalization of transfection efficiency and cell growth, and one pFA-CMV-hNR-LBD clone coding for the hinge region and ligand binding domain (LBD) of the NR of interest. Five hours after transfection, the cells were incubated with Opti-MEM supplemented with penicillin (100 U/mL) and streptomycin (100 µg/mL), additionally containing 0.1% DMSO and the respective test compound or 0.1% DMSO alone as untreated control. After overnight (14–16 h) incubation, luminescence was measured using the Dual-Glo® Luciferase Assay System (Promega, Madison, WI, USA) according to the manufacturer’s protocol with a Tecan Spark® 10 M multimode microplate reader. Relative light units (RLU) for normalization of transfection efficiency and cell growth were calculated by dividing firefly luminescence by renilla luminescence and multiplication by 1000. Fold activation was obtained by dividing the mean RLU of a test compound at a respective concentration by the mean RLU of the untreated control. All samples were tested in duplicates in at least three biologically independent experiments. For dose response curve fitting and calculation of the EC50/IC50 values, the equation “[Agonist]/[Inhibitor] vs. response – Variable slope (four parameters)” was used in GraphPad Prism 7. The following pFA-CMV-hNR-LBD clones and reference ligands were used: THRβ (pFA-CMV-hTHRβ-LBD[71], 1 µM T3), PPARδ (pFA-CMV-hPPARδ-LBD[72], 1 µM L-165,041), FXR (pFA-CMV-hFXR-LBD[73], 1 µM GW4064).

[8] = Gal4-hybrid reporter gene assay, mean, n ≥ 3

T1 sequence (O14842 whole entry): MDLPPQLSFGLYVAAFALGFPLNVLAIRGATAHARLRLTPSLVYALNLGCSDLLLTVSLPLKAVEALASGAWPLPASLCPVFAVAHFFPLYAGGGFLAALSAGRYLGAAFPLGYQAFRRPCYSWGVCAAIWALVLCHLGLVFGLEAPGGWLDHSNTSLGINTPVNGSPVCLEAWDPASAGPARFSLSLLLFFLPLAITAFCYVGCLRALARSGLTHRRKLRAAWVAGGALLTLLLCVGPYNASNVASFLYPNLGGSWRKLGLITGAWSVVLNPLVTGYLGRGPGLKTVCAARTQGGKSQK

SMILES: CCOC(CC(=O)O)c1ccc(OC2CCc3c(Cl)cccc32)cc1 (stereo not shown)
- EC50 [1]: 5 nM

SMILES: CC#CC(CC(=O)O)c1ccc(NC(=O)C(=O)Nc2cccc(C(C)(C)C)c2)cc1 (stereo not shown)
- EC50 [1]: 4 nM

SMILES: CC#CC(CC(=O)O)c1ccc(OCc2cccc(CN(Cc3ccsc3)C3CCOCC3)c2)cc1 (stereo not shown)
- EC50 [1]: 8 nM

SMILES: CC(C)(C)N1CCOC(COc2ccc(NC(=O)NC3CCCCC3)cc2)C1 (stereo not shown)
- IC50 [2]: 77 nM

SMILES: CC(C(=O)O)C(c1ccc2c(c1)OC(C1CCN(C(C)c3cc(F)ccc3OC(F)(F)F)CC1)CC2)C1CC1 (stereo not shown)
- EC50 [1]: 2 nM

SMILES: CC(C)c1cc(Oc2c(Cl)cc(-n3nc(C#N)c(=O)[nH]c3=O)cc2Cl)nn(C)c1=O
- EC50 [3]: 40 nM

SMILES: CC(C)c1cnn(-c2c(Cl)cccc2Cl)c1COc1ccc(C=Cc2cccc(C(=O)O)c2)c(Cl)c1
- EC50 [4]: 20 nM

SMILES: CC(C)c1noc(C2CCN(C(=O)NC3CC3c3ccccc3)CC2)n1 (stereo not shown)
- IC50 [2]: 6 nM

SMILES: CC(C)c1onc(-c2c(Cl)cccc2Cl)c1COc1ccc2sc(-c3cccc(C(=O)O)c3)cc2c1
- EC50 [4]: 32 nM

SMILES: CC(C)n1nc(C(=O)O)cc1C1CC1c1ccc(OCc2c(-c3c(Cl)cccc3Cl)noc2C2CC2)cc1Cl (stereo not shown)
- EC50 [4]: 4 nM

SMILES: CN(Cc1cccc(C(=O)O)c1)c1ccc(OCc2c(-c3c(Cl)cccc3Cl)noc2C2CC2)nc1C(F)(F)F
- EC50 [4]: 9 nM

SMILES: COc1ccc(CNc2c(-c3cc(Cl)ccn3)nc3ccc(Cl)cn23)cc1
- EC50 [4]: 0.3 nM

SMILES: COc1ccc(F)c(C2CCC(COc3cccc(C(C4CC4)C(C)C(=O)O)c3)CC2)c1 (stereo not shown)
- EC50 [1]: 2 nM

SMILES: Cc1c(CC(=O)O)c2ccccc2n1Cc1ccc(O)c(C(C)C)c1
- EC50 [3]: 150 nM

SMILES: Cc1cccc(C)c1OCc1noc(C(C)C)c1COc1ccc(C=Cc2cccc(C(=O)O)c2)c(Cl)c1
- EC50 [4]: 56 nM

SMILES: O=C(NCc1ccc(Br)cc1OC(F)(F)F)c1ccc(OCCC(F)(F)F)nc1
- IC50 [2]: 12 nM

SMILES: O=C(O)CCc1ccc(OC2CCN(C(=O)NC3C(c4ccccc4)C3c3ccccc3)CC2)cc1 (stereo not shown)
- IC50 [2]: 2 nM

SMILES: O=C(O)Cc1cc(Cl)c(Oc2ccc(O)c(C(=O)NCC(c3ccccc3)c3ccccc3)c2)c(Cl)c1
- EC50 [3]: 0.5 nM

SMILES: O=C(O)c1ccc2nc(N3CCCC(OCc4c(-c5ccccc5OC(F)(F)F)noc4C4CC4)CC3)sc2c1 (stereo not shown)
- EC50 [4]: 7 nM

- EC50 [5]: 370 nM
- IC50 [6]: 4100 nM
SMILES: CC(C)(C)c1ccc(CNC(=O)c2ccc(C(=O)O)cc2)cc1 [Compound 1]

- EC50 [5]: 440 nM
- IC50 [6]: 8100 nM
SMILES: O=C(O)c1ccc(CNC(=O)c2ccc(-c3ccccc3)cc2)cc1 [Compound 2]

- FXR: fold act. at 50 µM ([5]; at 50 µM): 3.4 fold
- IC50 [6]: 21000 nM
SMILES: O=C(O)c1ccc(-c2ccc(C(=O)NCc3c(Cl)cccc3Cl)cc2)cc1 [Compound 3]

- THRβ: activity [7, 8]: inactive
SMILES: CC(C)c1onc(-c2c(Cl)cccc2Cl)c1COc1ccc(C(=O)O)cc1 [Compound 4]
- THRβ agonism [7]: no detectable

- EC50 [5]: 11000 nM
- THRβ: activity [7, 8]: inactive
SMILES: CC(C)c1onc(-c2c(Cl)cccc2Cl)c1COc1ccc(CC(=O)O)cc1 [Compound 5]
- THRβ agonism [7]: no detectable

- EC50 [5]: 1000 nM
- THRβ: fold act. at 15 µM ([7]; Gal4-hybrid reporter gene assay, at 15 µM, mean, n ≥ 3): 5 fold
SMILES: CC(C)c1onc(-c2c(Cl)cccc2Cl)c1COc1ccc(Cc2ccc(OCC(=O)O)cc2)cc1 [Compound 6]
- THRβ agonism [7]: weak
